Test: Plasma kinetics of ivermectin after spot-on application at different doses in combination with fipronil to dogs
Assay type: in vivo, dog
Procedure: This study was undertaken in order to assess the linearity of the percutaneous passage of ivermectin after spot-on application of different doses of ivermectin (100, 250, 500 and 1000 μg.kg^−1) in combination with fipronil (10 mg.kg^−1) to the dog. Furthermore, the possibility of control both heartworms and gastro-intestinal nematodes was evaluated.
Twelve male Beagle dogs (allocated into 4 groups of 3 animals were applied spot-on formulations combining ivermectin (0.1%, 0.25%, 0.5% and 1%) and fipronil (10%) at a dose rate of 0.1 ml.kg^−1 (i.e. 100, 250, 500 and 1000 μg.kg^−1 of ivermectin and 10 mg.kg^−1 of fipronil).
The formulations are as follows: […]
The formulations were applied at one spot onto the skin between the shoulder blades.
Blood samples were collected at intervals up to 56 days post treatment.
The determination of ivermectin was carried out by HPLC after an automated solid/liquid extraction, using fluorescence detection, with limit of quantification of 100 pg.ml^−1. The determination of fipronil and its sulfone metabolite (RM1602) was carried out by HPLC with UV detection, with a limit of quantification of 20 ng.ml^−1 for fipronil and RM1602. Both methods were validated in terms of specificity, extraction recovery, linearity, precision and accuracy.

SMILES: N#Cc1nn(-c2c(Cl)cc(C(F)(F)F)cc2Cl)c(N)c1S(=O)(=O)C(F)(F)F [RM1602]
- plasma concentrations compared with those usually observed in dogs treated at the same dose in previous studies (spot-on, fipronil 10 mg.kg^−1, dogs): significantly inferior

SMILES: N#Cc1nn(-c2c(Cl)cc(C(F)(F)F)cc2Cl)c(N)c1[S+]([O-])C(F)(F)F (centres unmarked) [fipronil, 1-[2,6-Cl2-4-CF3 phenyl]-3-CN-4-[SO—CF3]-5-NH2 pyrazole]
- plasma concentrations compared with those usually observed in dogs treated at the same dose in previous studies (dog, in vivo): significantly inferior

Source: patent US6962713B2, “Spot-on formulations for combating parasites” (Merial, priority 1919, dated 2005)
